Paper PMC5017016, “Calcium/calmodulin alleviates substrate inhibition in a strawberry UDP-glucosyltransferase involved in fruit anthocyanin biosynthesis” (BMC Plant Biology, 2016)

Biological target: T1, FvUGT1 (Fragaria vesca, UniProt A0A1S5NSV4)
T1 construct: gene UGT1; full-length ORF in pET-32 (KpnI/BamHI), N- and C-terminal His-tags kept, fusion 72 kD, E. coli BL21(DE3) pLysS, Ni-NTA; oligomer state unknown
T1 sequence (A0A1S5NSV4 1-465): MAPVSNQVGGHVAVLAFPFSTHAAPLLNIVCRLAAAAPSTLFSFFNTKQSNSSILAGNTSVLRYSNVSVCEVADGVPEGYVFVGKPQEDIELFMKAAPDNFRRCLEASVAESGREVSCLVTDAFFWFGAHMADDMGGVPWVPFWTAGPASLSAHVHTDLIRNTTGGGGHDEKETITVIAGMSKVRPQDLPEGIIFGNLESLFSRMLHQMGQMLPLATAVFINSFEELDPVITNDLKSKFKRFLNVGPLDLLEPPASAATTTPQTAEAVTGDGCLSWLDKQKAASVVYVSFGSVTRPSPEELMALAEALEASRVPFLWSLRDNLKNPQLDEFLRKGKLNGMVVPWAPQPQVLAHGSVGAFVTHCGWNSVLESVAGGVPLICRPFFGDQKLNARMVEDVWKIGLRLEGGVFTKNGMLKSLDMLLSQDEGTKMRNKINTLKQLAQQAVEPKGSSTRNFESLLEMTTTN
Experiment: phosphatase-coupled malachite green glycosyltransferase assay; partial uncompetitive substrate inhibition fit (modified Hill, x = […])
Type: biochemical
Conditions: second site, no calmodulin, 5 mM UDP-Glc, 0–1,400 μM pelargonidin chloride, 10 mM CaCl2, pH 7.5, 37 °C

For `Oc1ccc(-c2[o+]c3cc(O)cc(O)c3cc2O)cc1` [pelargonidin], the “K i” value was 331.5 ± 13.3 µM.
